In the experiment the target is T1, mGluR5 receptor (Sus scrofa, UniProt I3LUI7).
T1 construct: 450 μg of protein from brain homogenate with 5 nM ^3[H]-MPEP; from tissue; host or cells: pig brain halves without medulla, cerebellum and pons
Put plainly: [3H]-MPEP mGluR5 receptor binding assay (pig brain homogenate). The following applies: 5 nM [3H]-MPEP; for inhibition at 10 µM: read-out: % Inhibition of mGluR5 Receptor (pig) [^3H]-MPEP Bond at 10 μM. The method in brief:
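Radioligand displacement of 5 nM [3H]-MPEP from pig brain homogenate (450 μg protein; medulla, cerebellum and pons removed) in 20 mM Hepes pH 8.0. Compounds were tested at 10 μM, incubated 60 min at room temperature, then filtered and counted by scintillation. Non-specific binding was defined with 10 μM MPEP.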

This note sets out measurements from patent US20090069320A1, “Substituted 4-Amino-Quinazoline Compounds with Metabotropic Glutamate Receptor Regulating Activity and Uses Thereof” (Gruenenthal GmbH, priority 2006, published 2009).

T1 sequence (I3LUI7 19-1212): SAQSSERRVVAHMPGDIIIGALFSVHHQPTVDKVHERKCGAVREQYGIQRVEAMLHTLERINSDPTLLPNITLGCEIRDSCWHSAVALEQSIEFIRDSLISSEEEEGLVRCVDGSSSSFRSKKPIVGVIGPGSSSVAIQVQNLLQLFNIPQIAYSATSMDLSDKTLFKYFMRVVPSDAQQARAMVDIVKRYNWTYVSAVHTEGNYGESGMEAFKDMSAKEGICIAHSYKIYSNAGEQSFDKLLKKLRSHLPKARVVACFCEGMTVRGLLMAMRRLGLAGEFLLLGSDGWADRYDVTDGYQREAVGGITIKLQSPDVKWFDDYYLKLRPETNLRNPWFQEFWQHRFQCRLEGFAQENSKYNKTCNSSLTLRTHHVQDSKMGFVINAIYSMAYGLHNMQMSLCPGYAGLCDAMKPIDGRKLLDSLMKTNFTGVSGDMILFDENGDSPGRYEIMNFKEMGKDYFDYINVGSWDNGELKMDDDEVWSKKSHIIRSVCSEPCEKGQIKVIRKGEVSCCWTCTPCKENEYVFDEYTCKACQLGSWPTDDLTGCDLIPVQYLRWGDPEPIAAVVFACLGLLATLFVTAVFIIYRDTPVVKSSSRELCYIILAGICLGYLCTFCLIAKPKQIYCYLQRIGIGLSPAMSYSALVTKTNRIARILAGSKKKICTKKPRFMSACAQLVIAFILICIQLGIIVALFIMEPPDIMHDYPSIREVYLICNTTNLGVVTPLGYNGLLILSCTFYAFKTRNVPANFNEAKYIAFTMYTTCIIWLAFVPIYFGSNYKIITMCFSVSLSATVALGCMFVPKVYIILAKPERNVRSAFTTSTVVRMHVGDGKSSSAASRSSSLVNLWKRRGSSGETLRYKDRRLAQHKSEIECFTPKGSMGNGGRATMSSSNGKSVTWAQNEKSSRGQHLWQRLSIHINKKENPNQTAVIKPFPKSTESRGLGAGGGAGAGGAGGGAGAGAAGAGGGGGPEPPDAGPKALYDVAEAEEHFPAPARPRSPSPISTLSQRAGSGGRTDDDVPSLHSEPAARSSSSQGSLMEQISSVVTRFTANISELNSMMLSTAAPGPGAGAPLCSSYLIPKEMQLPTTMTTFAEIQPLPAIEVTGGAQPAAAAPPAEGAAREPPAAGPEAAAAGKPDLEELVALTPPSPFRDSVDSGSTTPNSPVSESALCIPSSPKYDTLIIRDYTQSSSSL

On to `O=S(=O)(Cc1ccccc1)N(Cc1cc(-c2ccc3ncnc(NC4CC4)c3c2)ccc1F)C1CC1` [Example 437, N-cyclopropyl-N-(5-(4-(cyclopropylamino)quinazolin-6-yl)-2-fluorobenzyl)-1-phenylmethane sulfonamide], for which, under “10 μM compound”, the inhibition at 10 µM stood at 90%.

As to `CS(=O)(=O)N(Cc1cccc(-c2ccc3ncnc(NCCc4ccccc4)c3c2)c1)C1CC1` [Example 440, N-cyclopropyl-N-(3-(4-(phenethylamino)quinazolin-6-yl)benzyl)methane sulfonamide], under “10 μM compound”, the inhibition at 10 µM is 73%.

With `Cc1nc(NC2CC2)c2cc(-c3cccc(CN(C(=O)c4c(F)c(F)c(F)c(F)c4F)C4CC4)c3)ccc2n1` [Example 447, N-cyclopropyl-N-(3-(4-(cyclopropylamino)-2-methylquinazolin-6-yl)benzyl)-2,3,4,5,6-pentafluorobenzamide], the inhibition at 10 µM (10 μM compound) is 85%.

With `O=C(C1CCCCC1)N(Cc1cc(-c2ccc3ncnc(NC4CC4)c3c2)ccc1F)C1CC1` [Example 452, N-cyclopropyl-N-(5-(4-(cyclopropylamino)quinazolin-6-yl)-2-fluorobenzyl)cyclohexane carboxamide], under “10 μM compound”, the inhibition at 10 µM worked out at 71%.

Take `Cc1nc(NC2CC2)c2cc(-c3cccc(CN(C(=O)c4ccc(C(F)(F)F)cc4F)C4CC4)c3)ccc2n1` [Example 454, N-cyclopropyl-N-(3-(4-(cyclopropylamino)-2-methylquinazolin-6-yl)benzyl)-2-fluoro-4-(trifluoromethyl)benzamide]: the inhibition at 10 µM (10 μM compound) was determined as 34%.

As for `O=C(c1ccno1)N(Cc1cc(-c2ccc3ncnc(NC4CC4)c3c2)ccc1F)C1CC1` [Example 457, N-cyclopropyl-N-(5-(4-(cyclopropylamino)quinazolin-6-yl)-2-fluorobenzyl)isoxazole-5-carboxamide], the IC50 (read-out: IC50 mGluR5 Receptor (pig) [^3H]-MPEP Bond) came to 0.21 µM.

Regarding `Cc1nc(NC2CC2)c2cc(-c3cccc(CN(C(=O)c4cccc(C(F)(F)F)c4)C4CC4)c3)ccc2n1` [Example 462, N-cyclopropyl-N-(3-(4-(cyclopropylamino)-2-methylquinazolin-6-yl)benzyl)-3-(trifluoromethyl)benzamide], the inhibition at 10 µM (10 μM compound) was found to be 48%.

In the case of `Cc1nc(NC2CC2)c2cc(-c3ccc(F)c(CN(C(=O)c4ccccc4C(F)(F)F)C4CC4)c3)ccc2n1` [Example 470, N-cyclopropyl-N-(5-(4-(cyclopropylamino)-2-methylquinazolin-6-yl)-2-fluorobenzyl)-2-(trifluoromethyl)benzamide], the inhibition at 10 µM (10 μM compound) was 93%.

Regarding `CC(C)S(=O)(=O)N(C)Cc1cc(-c2ccc3ncnc(NCc4ccccc4)c3c2)ccc1F` [Example 484, N-(5-(4-(benzylamino)quinazolin-6-yl)-2-fluorobenzyl)-N-methylpropane-2-sulfonamide], the inhibition at 10 µM (10 μM compound) worked out at 63%.

As for `Cc1cc(C(=O)N(Cc2cccc(-c3ccc4nc(C)nc(NC5CC5)c4c3)c2)C2CC2)n(C)n1` [Example 485, N-cyclopropyl-N-(3-(4-(cyclopropylamino)-2-methylquinazolin-6-yl)benzyl)-1,3-dimethyl-1H-pyrazole-5-carboxamide], under “10 μM compound”, the inhibition at 10 µM is 32%.

As to `Cc1nc(NC2CC2)c2cc(-c3cccc(CN(C(=O)c4cccc(F)c4)C4CC4)c3)ccc2n1` [Example 509, N-cyclopropyl-N-(3-(4-(cyclopropylamino)-2-methylquinazolin-6-yl)benzyl)-3-fluorobenzamide], for the setting “10 μM compound”, the inhibition at 10 µM was 31%.

Regarding `Cc1nc(NC2CC2)c2cc(-c3cccc(CN(C(=O)c4ccc(F)cc4F)C4CC4)c3)ccc2n1` [Example 517, N-cyclopropyl-N-(3-(4-(cyclopropylamino)-2-methylquinazolin-6-yl)benzyl)-2,4-difluorobenzamide], where the note is “10 μM compound”, the inhibition at 10 µM is 59%.

Take `CCCCC(=O)N(Cc1cccc(-c2ccc3nc(C)nc(NC4CC4)c3c2)c1)C1CC1` [Example 519, N-cyclopropyl-N-(3-(4-(cyclopropylamino)-2-methylquinazolin-6-yl)benzyl)pentanamide]: the inhibition at 10 µM (10 μM compound) was determined as 76%.

As to `Cc1nc(NC2CC2)c2cc(-c3ccc(F)c(CN(C(=O)c4ccc(F)cc4F)C4CC4)c3)ccc2n1` [Example 524, N-cyclopropyl-N-(5-(4-(cyclopropylamino)-2-methylquinazolin-6-yl)-2-fluorobenzyl)-2,4-difluorobenzamide], the inhibition at 10 µM (10 μM compound) was 85%.

Turning to `Cc1nc(NC2CC2)c2cc(-c3ccc(F)c(CN(C(=O)c4ccc(C(F)(F)F)cc4F)C4CC4)c3)ccc2n1` [Example 532, N-cyclopropyl-N-(5-(4-(cyclopropylamino)-2-methylquinazolin-6-yl)-2-fluorobenzyl)-2-fluoro-4-(trifluoromethyl)benzamide], the inhibition at 10 µM (10 μM compound) was determined as 61%.

For the compound `CCCCC(=O)N(Cc1cc(-c2ccc3nc(C)nc(NC4CC4)c3c2)ccc1F)C1CC1` [Example 540, N-cyclopropyl-N-(5-(4-(cyclopropylamino)-2-methylquinazolin-6-yl)-2-fluorobenzyl)pentanamide], for the setting “10 μM compound”, the inhibition at 10 µM was determined as 91%.

Regarding `Cc1cc(C(=O)N(Cc2cc(-c3ccc4nc(C)nc(NC5CC5)c4c3)ccc2F)C2CC2)n(C)n1` [Example 542, N-cyclopropyl-N-(5-(4-(cyclopropylamino)-2-methylquinazolin-6-yl)-2-fluorobenzyl)-1,3-dimethyl-1H-pyrazole-5-carboxamide], the inhibition at 10 µM (10 μM compound) is 33%.

Consider `Cc1nc(NC2CC2)c2cc(-c3cccc(CN(C(=O)Cc4ccccc4)C4CC4)c3)ccc2n1` [Example 544, N-cyclopropyl-N-(3-(4-(cyclopropylamino)-2-methylquinazolin-6-yl)benzyl)-2-phenylacetamide], for which the inhibition at 10 µM (10 μM compound) came to 66%.

For `CCCCC(=O)N(C)Cc1cc(-c2ccc3ncnc(NCc4ccccc4)c3c2)ccc1F` [Example 549, N-(5-(4-(benzylamino)quinazolin-6-yl)-2-fluorobenzyl)-N-methyl pentanamide], for the setting “10 μM compound”, the “% Inhibition of mGluR5 Receptor (pig) [^3H]-MPEP Bond at 10 μM” value was found to be 32%.

Turning to `Cc1nc(NC2CC2)c2cc(-c3ccc(F)c(CN(C(=O)c4ccccc4)C4CC4)c3)ccc2n1` [Example 550, N-cyclopropyl-N-(5-(4-(cyclopropylamino)-2-methylquinazolin-6-yl)-2-fluorobenzyl)benzamide], where the note is “10 μM compound”, the inhibition at 10 µM amounted to 40%.

With `COCC(=O)N(C)Cc1cc(-c2ccc3ncnc(NCc4ccccc4)c3c2)ccc1F` [Example 557, N-(5-(4-(benzylamino)quinazolin-6-yl)-2-fluorobenzyl)-2-methoxy-N-methylacetamide], for the setting “10 μM compound”, the inhibition at 10 µM stood at 42%.

On to `COc1ccc(C(=O)N(Cc2cc(-c3ccc4nc(C)nc(NC5CC5)c4c3)ccc2F)C2CC2)cc1OC` [Example 558, N-cyclopropyl-N-(5-(4-(cyclopropylamino)-2-methylquinazolin-6-yl)-2-fluorobenzyl)-3,4-dimethoxybenzamide], for which, where the note is “10 μM compound”, the inhibition at 10 µM was 42%.

Turning to `Cc1nc(NC2CC2)c2cc(-c3ccc(F)c(CN(C(=O)c4cccc(F)c4)C4CC4)c3)ccc2n1` [Example 566, N-cyclopropyl-N-(5-(4-(cyclopropylamino)-2-methylquinazolin-6-yl)-2-fluorobenzyl)-3-fluorobenzamide], the inhibition at 10 µM (10 μM compound) came to 61%.

Take `Cc1nc(NC2CC2)c2cc(-c3ccc(F)c(CN(C(=O)c4c(F)c(F)c(F)c(F)c4F)C4CC4)c3)ccc2n1` [Example 574, N-cyclopropyl-N-(5-(4-(cyclopropylamino)-2-methylquinazolin-6-yl)-2-fluorobenzyl)-2,3,4,5,6-pentafluorobenzamide]: the inhibition at 10 µM (10 μM compound) was 106%.

For `CNc1ncnc2ccc(-c3ccc(F)c(CN(C)S(=O)(=O)C(C)C)c3)cc12` [Example 578, N-(2-fluoro-5-(4-(methylamino)quinazolin-6-yl)benzyl)-N-methylpropane-2-sulfonamide], the inhibition at 10 µM (10 μM compound) was 76%.

As to `Cc1nc(NC2CC2)c2cc(-c3ccc(F)c(CN(C(=O)c4cccc(C(F)(F)F)c4)C4CC4)c3)ccc2n1` [Example 582, N-cyclopropyl-N-(5-(4-(cyclopropylamino)-2-methylquinazolin-6-yl)-2-fluorobenzyl)-3-(trifluoromethyl)benzamide], where the note is “10 μM compound”, the inhibition at 10 µM worked out at 80%.

`CNc1ncnc2ccc(-c3ccc(F)c(CN(C)C(=O)c4c(F)c(F)c(F)c(F)c4F)c3)cc12` [Example 585, 2,3,4,5,6-pentafluoro-N-(2-fluoro-5-(4-(methylamino)quinazolin-6-yl)benzyl)-N-methylbenzamide]: where the note is “10 μM compound”, the inhibition at 10 µM came out at 70%.

For the compound `CNc1ncnc2ccc(-c3ccc(F)c(CN(C)S(=O)(=O)Cc4ccccc4)c3)cc12` [Example 586, N-(2-fluoro-5-(4-(methylamino)quinazolin-6-yl)benzyl)-N-methyl-1-phenylmethane sulfonamide], the inhibition at 10 µM (10 μM compound) was determined as 62%.

Take `CNc1ncnc2ccc(-c3ccc(F)c(CN(C)C(=O)c4ccc(C(F)(F)F)cc4F)c3)cc12` [Example 593, 2-fluoro-N-(2-fluoro-5-(4-(methylamino)quinazolin-6-yl)benzyl)-N-methyl-4-(trifluoromethyl)benzamide]: for the setting “10 μM compound”, the inhibition at 10 µM came out at 52%.

`CC(=O)N(C)Cc1cc(-c2ccc3ncnc(NCc4ccccc4)c3c2)ccc1F` [Example 595, N-(5-(4-(benzylamino)quinazolin-6-yl)-2-fluorobenzyl)-N-methylacetamide]: the inhibition at 10 µM (10 μM compound) turned out to be 53%.

For `Cc1nc(NC2CC2)c2cc(-c3ccc(F)c(CN(C(=O)CCc4ccccc4)C4CC4)c3)ccc2n1` [Example 601, N-cyclopropyl-N-(5-(4-(cyclopropylamino)-2-methylquinazolin-6-yl)-2-fluorobenzyl)-3-phenylpropanamide], the inhibition at 10 µM (10 μM compound) amounted to 78%.

With `Cc1nc(NC2CC2)c2cc(-c3ccc(F)c(CN(C(=O)c4ccccn4)C4CC4)c3)ccc2n1` [Example 604, N-cyclopropyl-N-(5-(4-(cyclopropylamino)-2-methylquinazolin-6-yl)-2-fluorobenzyl)picolinamide], the inhibition at 10 µM (10 μM compound) is 41%.
